Experiment [1] concerns the target Insulin receptor (Homo sapiens) (UniProt P06213). As to the kind of experiment: Inhibition of His-tagged IR (unknown origin) at 10 uM incubated for 30 mins in presence of [gamma-33P]ATP by multidrop micro reagent based assay relative to control.
Experiment [2] concerns the target Ephrin type-A receptor 2 (Homo sapiens) (UniProt P29317). As to the kind of experiment: Inhibition of EPH A2 (unknown origin) at 10 uM incubated for 30 mins in presence of [gamma-33P]ATP by multidrop micro reagent based assay relative to control; values are per cent of control.
Experiment [3] addresses Ribosomal protein S6 kinase beta-1 (Homo sapiens) (UniProt P23443). Briefly: Residual activity of S6K1 (unknown origin) at 10 uM incubated for 30 mins in presence of [gamma-33P]ATP by multidrop micro reagent based assay relative to control.
Experiment [4] deals with MAP/microtubule affinity-regulating kinase 3 (Homo sapiens) (UniProt P27448). As to the kind of experiment: Inhibition of MARK3 (unknown origin) at 10 uM incubated for 30 mins in presence of [gamma-33P]ATP by multidrop micro reagent based assay relative to control; values are per cent of control.
The target of experiment [5] is Casein kinase 2 (Homo sapiens) (UniProt P67870+P68400+P19784+Q8NEV1). As to the kind of experiment: Inhibition of CK2 (unknown origin) at 10 uM incubated for 30 mins in presence of [gamma-33P]ATP by multidrop micro reagent based assay relative to control; values are per cent of control.
The target of experiment [6] is Tyrosine-protein kinase SYK (Homo sapiens) (UniProt P43405). As to the kind of experiment: Inhibition of SYK (unknown origin) at 10 uM incubated for 30 mins in presence of [gamma-33P]ATP by multidrop micro reagent based assay relative to control; values are per cent of control.
For experiment [7], the target named is Protein kinase C alpha type (Homo sapiens) (UniProt P17252). As to the kind of experiment: Inhibition of PKCalpha (unknown origin) at 10 uM incubated for 30 mins in presence of [gamma-33P]ATP by multidrop micro reagent based assay relative to control; values are per cent of control.
For experiment [8], the target named is Serine/threonine-protein kinase D1 (Homo sapiens) (UniProt Q15139). Briefly: Residual activity of PKD1 (unknown origin) at 10 uM incubated for 30 mins in presence of [gamma-33P]ATP by multidrop micro reagent based assay relative to control.
Experiment [9] deals with Misshapen-like kinase 1 (Homo sapiens) (UniProt Q8N4C8). As to the kind of experiment: Inhibition of MINK1 (unknown origin) at 0.1 uM incubated for 30 mins in presence of [gamma-33P]ATP by multidrop micro reagent based assay relative to control.
The target of experiment [10] is T1, Mitogen-activated protein kinase kinase kinase kinase 2 (Homo sapiens) (UniProt Q12851).
T1 sequence (whole entry): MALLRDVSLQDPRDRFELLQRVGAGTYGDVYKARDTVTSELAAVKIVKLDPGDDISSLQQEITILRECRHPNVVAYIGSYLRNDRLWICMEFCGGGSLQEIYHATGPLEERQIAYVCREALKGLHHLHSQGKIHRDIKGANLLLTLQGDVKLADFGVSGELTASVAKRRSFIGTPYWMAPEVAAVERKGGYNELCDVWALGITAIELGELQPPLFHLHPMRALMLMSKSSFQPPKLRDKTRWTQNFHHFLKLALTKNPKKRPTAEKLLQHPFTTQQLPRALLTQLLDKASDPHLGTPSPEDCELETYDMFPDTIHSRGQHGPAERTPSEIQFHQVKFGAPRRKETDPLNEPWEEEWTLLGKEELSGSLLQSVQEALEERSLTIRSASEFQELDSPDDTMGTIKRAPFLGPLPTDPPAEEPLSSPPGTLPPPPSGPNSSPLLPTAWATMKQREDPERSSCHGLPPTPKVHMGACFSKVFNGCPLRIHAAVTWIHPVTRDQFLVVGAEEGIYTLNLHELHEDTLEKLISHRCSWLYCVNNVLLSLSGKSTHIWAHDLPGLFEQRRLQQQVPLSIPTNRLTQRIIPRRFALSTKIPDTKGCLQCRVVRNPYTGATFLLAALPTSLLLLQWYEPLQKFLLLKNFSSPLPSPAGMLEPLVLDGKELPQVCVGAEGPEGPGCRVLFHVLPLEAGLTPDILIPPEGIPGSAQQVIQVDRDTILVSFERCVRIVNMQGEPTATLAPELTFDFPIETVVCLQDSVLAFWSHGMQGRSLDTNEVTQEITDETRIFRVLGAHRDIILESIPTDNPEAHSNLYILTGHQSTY
As to the kind of experiment: Inhibition of GCK (unknown origin) at 0.1 uM incubated for 30 mins in presence of [gamma-33P]ATP by multidrop micro reagent based assay relative to control.

The next experiment is filed under the species Homo sapiens. Briefly: Inhibition of CDK2/cyclin A (unknown origin) at 10 uM incubated for 30 mins in presence of [gamma-33P]ATP by multidrop micro reagent based assay relative to control.

As a reminder, the inhibition is the change of the read-out against control, counted positive when it falls. For orientation: residual activity means the signal under treatment as a percentage of the control signal.

Chain of Ephrin type-A receptor 2 (Homo sapiens) (P29317 whole entry): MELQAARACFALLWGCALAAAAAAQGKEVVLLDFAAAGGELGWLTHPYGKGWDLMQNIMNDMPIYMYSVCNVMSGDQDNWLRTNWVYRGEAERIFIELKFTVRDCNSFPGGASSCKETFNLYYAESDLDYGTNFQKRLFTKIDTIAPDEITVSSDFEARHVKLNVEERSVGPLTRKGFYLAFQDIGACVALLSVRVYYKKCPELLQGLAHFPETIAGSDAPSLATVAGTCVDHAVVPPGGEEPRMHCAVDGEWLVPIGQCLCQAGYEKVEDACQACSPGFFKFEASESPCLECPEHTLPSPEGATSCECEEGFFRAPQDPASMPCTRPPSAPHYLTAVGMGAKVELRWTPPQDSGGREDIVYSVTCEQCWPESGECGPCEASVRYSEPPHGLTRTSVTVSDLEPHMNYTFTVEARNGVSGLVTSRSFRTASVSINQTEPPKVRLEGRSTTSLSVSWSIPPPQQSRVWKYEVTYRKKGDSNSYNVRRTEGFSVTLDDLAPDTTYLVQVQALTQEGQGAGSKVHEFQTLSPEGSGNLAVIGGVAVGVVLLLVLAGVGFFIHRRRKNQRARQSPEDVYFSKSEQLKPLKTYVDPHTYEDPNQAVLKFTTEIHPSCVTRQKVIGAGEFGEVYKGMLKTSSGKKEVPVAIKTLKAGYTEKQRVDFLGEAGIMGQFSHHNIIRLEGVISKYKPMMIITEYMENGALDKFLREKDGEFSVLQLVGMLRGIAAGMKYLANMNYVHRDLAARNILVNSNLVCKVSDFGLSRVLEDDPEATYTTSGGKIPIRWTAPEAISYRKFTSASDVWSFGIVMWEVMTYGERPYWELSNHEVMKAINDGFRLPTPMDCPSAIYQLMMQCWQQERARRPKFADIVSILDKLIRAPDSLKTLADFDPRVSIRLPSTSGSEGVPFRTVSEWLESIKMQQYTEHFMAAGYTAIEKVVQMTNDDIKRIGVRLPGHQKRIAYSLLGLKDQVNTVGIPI
Chain of Insulin receptor (Homo sapiens) (P06213 28-758 limits assumed): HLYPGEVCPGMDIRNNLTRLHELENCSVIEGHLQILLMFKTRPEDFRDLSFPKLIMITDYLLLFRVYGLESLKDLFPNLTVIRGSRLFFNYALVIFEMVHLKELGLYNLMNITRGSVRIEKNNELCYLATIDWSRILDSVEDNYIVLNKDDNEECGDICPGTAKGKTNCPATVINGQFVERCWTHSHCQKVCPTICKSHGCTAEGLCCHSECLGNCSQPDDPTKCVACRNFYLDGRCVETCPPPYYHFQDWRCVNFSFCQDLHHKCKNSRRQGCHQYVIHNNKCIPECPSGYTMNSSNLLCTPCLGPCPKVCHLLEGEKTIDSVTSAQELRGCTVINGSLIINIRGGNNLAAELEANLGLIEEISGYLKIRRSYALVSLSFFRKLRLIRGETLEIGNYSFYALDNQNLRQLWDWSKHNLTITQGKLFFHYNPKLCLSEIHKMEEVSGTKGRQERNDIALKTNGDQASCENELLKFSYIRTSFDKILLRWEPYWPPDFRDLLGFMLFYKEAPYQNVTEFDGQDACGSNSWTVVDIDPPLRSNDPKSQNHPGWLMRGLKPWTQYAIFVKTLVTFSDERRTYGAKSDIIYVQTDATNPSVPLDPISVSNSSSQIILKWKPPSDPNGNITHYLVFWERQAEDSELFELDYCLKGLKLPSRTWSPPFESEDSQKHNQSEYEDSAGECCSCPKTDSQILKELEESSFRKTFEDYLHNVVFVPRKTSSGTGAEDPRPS
Chain of Insulin receptor (Homo sapiens) (P06213 763-1382 limits assumed): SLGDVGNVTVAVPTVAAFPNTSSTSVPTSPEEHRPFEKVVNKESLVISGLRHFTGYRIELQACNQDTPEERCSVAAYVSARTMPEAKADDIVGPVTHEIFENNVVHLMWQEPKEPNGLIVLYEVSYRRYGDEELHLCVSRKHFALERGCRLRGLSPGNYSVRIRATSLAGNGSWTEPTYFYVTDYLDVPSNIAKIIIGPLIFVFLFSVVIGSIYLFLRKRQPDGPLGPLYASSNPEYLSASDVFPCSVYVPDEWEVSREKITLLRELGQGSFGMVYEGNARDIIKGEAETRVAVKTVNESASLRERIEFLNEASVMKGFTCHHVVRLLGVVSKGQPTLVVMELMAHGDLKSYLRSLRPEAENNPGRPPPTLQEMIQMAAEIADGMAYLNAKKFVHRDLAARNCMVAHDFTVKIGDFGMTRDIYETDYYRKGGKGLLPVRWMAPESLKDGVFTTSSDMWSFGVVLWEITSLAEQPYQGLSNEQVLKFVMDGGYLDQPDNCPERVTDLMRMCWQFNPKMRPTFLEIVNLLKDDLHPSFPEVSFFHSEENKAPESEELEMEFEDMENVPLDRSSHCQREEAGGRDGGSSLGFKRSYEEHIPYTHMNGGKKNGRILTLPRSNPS
Chain of Ribosomal protein S6 kinase beta-1 (Homo sapiens) (P23443 whole entry, looked up): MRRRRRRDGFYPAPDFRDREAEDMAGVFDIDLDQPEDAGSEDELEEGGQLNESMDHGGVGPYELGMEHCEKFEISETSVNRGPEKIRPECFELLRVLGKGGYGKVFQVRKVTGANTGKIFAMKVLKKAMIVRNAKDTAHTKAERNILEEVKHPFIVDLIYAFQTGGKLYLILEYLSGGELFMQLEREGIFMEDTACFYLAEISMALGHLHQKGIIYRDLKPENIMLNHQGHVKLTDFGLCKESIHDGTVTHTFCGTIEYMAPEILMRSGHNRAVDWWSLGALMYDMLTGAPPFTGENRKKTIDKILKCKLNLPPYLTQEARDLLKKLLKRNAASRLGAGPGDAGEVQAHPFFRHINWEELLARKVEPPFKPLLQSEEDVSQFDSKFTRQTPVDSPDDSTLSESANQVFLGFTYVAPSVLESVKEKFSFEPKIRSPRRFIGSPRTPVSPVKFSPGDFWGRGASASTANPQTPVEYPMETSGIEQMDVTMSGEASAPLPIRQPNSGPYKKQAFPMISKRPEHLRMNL
Chain of MAP/microtubule affinity-regulating kinase 3 (Homo sapiens) (P27448 whole entry, looked up): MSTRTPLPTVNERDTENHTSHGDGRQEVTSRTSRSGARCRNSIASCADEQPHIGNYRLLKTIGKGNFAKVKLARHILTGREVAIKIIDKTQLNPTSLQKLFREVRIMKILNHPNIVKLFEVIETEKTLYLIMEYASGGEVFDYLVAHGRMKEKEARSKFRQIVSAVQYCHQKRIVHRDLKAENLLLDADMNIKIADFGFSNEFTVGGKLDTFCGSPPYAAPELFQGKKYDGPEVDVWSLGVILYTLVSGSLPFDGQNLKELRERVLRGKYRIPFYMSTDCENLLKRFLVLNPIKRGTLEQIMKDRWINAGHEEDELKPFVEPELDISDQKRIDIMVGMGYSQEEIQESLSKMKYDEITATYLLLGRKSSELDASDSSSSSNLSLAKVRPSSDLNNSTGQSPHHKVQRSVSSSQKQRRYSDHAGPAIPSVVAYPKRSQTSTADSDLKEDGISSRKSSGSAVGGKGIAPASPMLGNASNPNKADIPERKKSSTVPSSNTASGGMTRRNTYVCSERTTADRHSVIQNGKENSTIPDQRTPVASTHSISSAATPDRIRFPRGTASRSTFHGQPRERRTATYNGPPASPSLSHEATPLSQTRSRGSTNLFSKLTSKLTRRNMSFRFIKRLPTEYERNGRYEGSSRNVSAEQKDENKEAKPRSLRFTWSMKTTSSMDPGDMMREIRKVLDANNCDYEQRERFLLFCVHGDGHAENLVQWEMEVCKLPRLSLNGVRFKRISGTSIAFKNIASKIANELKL

On to `C[C@@H](N)[C@H]1CC[C@H](C(=O)Nc2ccncc2)CC1`, for which the inhibition in [1] came out at 113%. Moreover, the residual activity in experiment [2] came out at 106%; in experiment [3], 70%; in [4], 105%; in experiment [5] it was 85%; in experiment [6] it was 94%; in [7], 52%. In experiment [8], the residual activity is 89%.
In the case of `CCN(CC)CCNC(=O)c1c(C)[nH]c(/C=C2\C(=O)Nc3ccc(F)cc32)c1C`, the inhibition is 46% in experiment [9] and 45% in [10].
In the case of `O=S(=O)(c1cccc2cnccc12)N1CCCNCC1` [FASUDIL], the inhibition in the experiment filed under Homo sapiens came out at 82%.
